Literature values, collected in PMC3303928 (Bioorganic & medicinal chemistry, 2012).

Conditions: animal tests, racemic mixtures (and their corresponding 3R,4R stereoisomers)

| SMILES | blood-brain barrier (BBB) penetration |
| --- | --- |
| Cc1cc(N)nc(C[C@H]2CNC[C@H]2NCCNCCc2cccc(F)c2)c1 [Compound 1] | minimal |
| Cc1cc(N)nc(C[C@H]2CNC[C@H]2OCCNCCc2cccc(F)c2)c1 [Compound 3] | minimal |
